Measurements: ChEMBL document CHEMBL1127932, “6-isoxazolinyl and isoxazolidinyl substituted quinazolinones as angiotensin II receptor antagonists” (Bioorg Med Chem Lett, 1994)

Key:
[1] = biological target: T1, Type-1 angiotensin II receptor (Bos taurus, UniProt P25104); test: In vitro Angiotensin II receptor antagonism in bovine adrenal cortex tissue.; format: functional, tissue-based
T1 sequence (P25104 whole entry): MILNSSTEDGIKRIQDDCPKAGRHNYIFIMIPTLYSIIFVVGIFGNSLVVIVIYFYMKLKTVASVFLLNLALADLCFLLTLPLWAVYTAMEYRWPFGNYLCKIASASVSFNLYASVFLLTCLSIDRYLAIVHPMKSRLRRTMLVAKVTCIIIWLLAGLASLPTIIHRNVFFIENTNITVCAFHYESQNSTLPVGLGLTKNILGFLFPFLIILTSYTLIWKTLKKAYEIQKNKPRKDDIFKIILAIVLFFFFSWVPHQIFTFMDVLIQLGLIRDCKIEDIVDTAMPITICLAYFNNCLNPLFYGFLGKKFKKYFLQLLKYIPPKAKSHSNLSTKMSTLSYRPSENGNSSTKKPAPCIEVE

Angiotensin II receptor = biological target: T2, Angiotensin II receptor (Rattus norvegicus, UniProt P29089+P25095+P35351); test: In vitro Angiotensin II receptor antagonist activity in rat adrenal cortex tissue.; format: functional, tissue-based
T2 sequence (P29089 whole entry): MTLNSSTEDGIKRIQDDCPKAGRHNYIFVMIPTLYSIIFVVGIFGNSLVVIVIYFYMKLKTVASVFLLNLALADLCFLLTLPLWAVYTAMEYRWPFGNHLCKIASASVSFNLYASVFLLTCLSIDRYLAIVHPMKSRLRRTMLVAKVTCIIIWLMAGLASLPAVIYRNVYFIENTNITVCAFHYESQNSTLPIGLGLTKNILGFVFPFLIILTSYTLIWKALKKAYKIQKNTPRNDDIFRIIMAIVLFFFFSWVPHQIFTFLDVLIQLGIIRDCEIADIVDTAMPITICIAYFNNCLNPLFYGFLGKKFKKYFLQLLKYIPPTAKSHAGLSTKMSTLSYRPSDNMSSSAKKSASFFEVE
T2 sequence (P25095 whole entry): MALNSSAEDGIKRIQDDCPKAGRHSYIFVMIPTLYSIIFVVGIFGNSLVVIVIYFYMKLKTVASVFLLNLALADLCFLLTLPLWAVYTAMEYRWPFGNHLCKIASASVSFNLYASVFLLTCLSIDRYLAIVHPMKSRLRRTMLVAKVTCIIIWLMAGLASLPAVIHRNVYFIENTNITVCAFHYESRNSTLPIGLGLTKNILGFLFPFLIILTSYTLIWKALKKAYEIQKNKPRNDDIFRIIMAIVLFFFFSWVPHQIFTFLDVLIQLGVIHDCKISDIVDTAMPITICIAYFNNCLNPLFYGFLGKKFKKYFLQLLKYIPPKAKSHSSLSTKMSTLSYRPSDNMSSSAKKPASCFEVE
T2 sequence (P35351 whole entry): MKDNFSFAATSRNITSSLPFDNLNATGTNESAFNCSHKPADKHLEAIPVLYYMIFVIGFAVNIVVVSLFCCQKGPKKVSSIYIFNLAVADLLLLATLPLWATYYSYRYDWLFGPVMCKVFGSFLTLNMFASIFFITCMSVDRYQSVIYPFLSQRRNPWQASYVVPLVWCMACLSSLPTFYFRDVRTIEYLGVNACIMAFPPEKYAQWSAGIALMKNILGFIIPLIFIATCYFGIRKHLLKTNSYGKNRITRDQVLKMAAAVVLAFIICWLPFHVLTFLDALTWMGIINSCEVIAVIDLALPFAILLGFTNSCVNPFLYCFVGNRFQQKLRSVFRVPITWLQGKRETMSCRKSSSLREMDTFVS

Rattus norvegicus [2] = test: In vivo change in mean arterial blood pressure in conscious renin-dependent […] hypertensive rats at 1 mg/kg, p.o. after 2 hr; format: functional; settings: route oral
Rattus norvegicus [3] = test: In vivo change in mean arterial blood pressure in conscious renin-dependent […] hypertensive rats at 1 mg/kg, p.o. after 30 min; format: functional; settings: route oral
Rattus norvegicus [4] = test: Percent inhibition of AII vasopressor response in SHR at 5 mg/kg of oral dose after 5 hr in hypertensive rats; format: functional

Row | SMILES | IC50 [1] | other results
1 | CCCCc1nc2ccc(C3(C(=O)N4CCCC4)C[C@H]4CCCN4O3)cc2c(=O)n1Cc1ccc(-c2ccccc2-c2nnn[nH]2)cc1 (stereo not given in full) | 69 nM | 
2 | CCCCc1nc2ccc(C3CCCO3)cc2c(=O)n1Cc1ccc(-c2ccccc2-c2nn[nH]n2)cc1 (stereo not given) |  | IC50 (Angiotensin II receptor): 11 nM
3 | CCCCc1nc2ccc(C3(C)CC(C(=O)OCC)=NO3)cc2c(=O)n1Cc1ccc(-c2ccccc2-c2nn[nH]n2)cc1 (stereo not given) | 140 nM | 
4 | CCCCc1nc2ccc([C@]3(c4ccccc4)C[C@H]4CCCN4O3)cc2c(=O)n1Cc1ccc(-c2ccccc2-c2nnn[nH]2)cc1 | 56 nM | 
5 | CCCCc1nc2ccc(C3CC(c4cc(C)co4)=NO3)cc2c(=O)n1Cc1ccc(-c2ccccc2-c2nnn[nH]2)cc1 (stereo not given) | 180 nM | 
6 | CCCCc1nc2ccc([C@]3(C)C[C@H]4CCC(C)(C)N4O3)cc2c(=O)n1Cc1ccc(-c2ccccc2-c2nnn[nH]2)cc1 | 65 nM | 
7 | CCCCc1nc2ccc([C@]3(C(=O)OC)C[C@H]4CCCN4O3)cc2c(=O)n1Cc1ccc(-c2ccccc2-c2nnn[nH]2)cc1 | 79 nM | 
8 | CCCCc1nc2ccc([C@]3(C(=O)O)C[C@H]4CCCN4O3)cc2c(=O)n1Cc1ccc(-c2ccccc2-c2nnn[nH]2)cc1 | 46 nM | 
9 | CCCCc1nc2ccc(C3C=CCO3)cc2c(=O)n1Cc1ccc(-c2ccccc2-c2nn[nH]n2)cc1 (stereo not given) |  | IC50 (Angiotensin II receptor): 5 nM
10 | CCCCc1nc2ccc([C@@H]3C[C@@]4(C)CCCCN4O3)cc2c(=O)n1Cc1ccc(-c2ccccc2-c2nn[nH]n2)cc1 | 65 nM | 
11 | CCCCc1nc2ccc(-c3ccco3)cc2c(=O)n1Cc1ccc(-c2ccccc2-c2nn[nH]n2)cc1 |  | IC50 (Angiotensin II receptor): 47 nM
12 | CCCCc1nc2ccc(C3CC(C(=O)O)=NO3)cc2c(=O)n1Cc1ccc(-c2ccccc2-c2nn[nH]n2)cc1 (stereo not given) | 500 nM | 
13 | CCCCc1nc2ccc(-c3cccs3)cc2c(=O)n1Cc1ccc(-c2ccccc2-c2nn[nH]n2)cc1 |  | IC50 (Angiotensin II receptor): 44 nM

Further lines, with some results ahead:

Row | IC50 [1] | SMILES | other results
14 | 70 nM | CCCCc1nc2ccc([C@@]3(C)C[C@H]4CCC(C)(C)N4O3)cc2c(=O)n1Cc1ccc(-c2ccccc2-c2nnn[nH]2)cc1 | 
15 | 410 nM | CCCCc1nc2ccc(C3CC(c4cc(C)cs4)=NO3)cc2c(=O)n1Cc1ccc(-c2ccccc2-c2nnn[nH]2)cc1 (stereo not given) | 
16 | 61 nM | CCCCc1nc2ccc(C3(C(=O)N4CCCCC4)C[C@H]4CCCN4O3)cc2c(=O)n1Cc1ccc(-c2ccccc2-c2nn[nH]n2)cc1 (stereo not given in full) | 
17 | 55 nM | CCCCc1nc2ccc([C@@]3(C)C[C@H]4CCCN4O3)cc2c(=O)n1Cc1ccc(-c2ccccc2-c2nn[nH]n2)cc1 | 
18 | 57 nM | CCCCc1nc2ccc([C@]3(C(=O)N(C)C)C[C@H]4CCCN4O3)cc2c(=O)n1Cc1ccc(-c2ccccc2-c2nnn[nH]2)cc1 | 
19 | 69 nM | CCCCc1nc2ccc([C@H]3ON4CCCC4C3C(=O)OCC)cc2c(=O)n1Cc1ccc(-c2ccccc2-c2nn[nH]n2)cc1 (stereo not given in full) | 
20 | 58 nM | CCCCc1nc2ccc([C@@]3(CC)C[C@H]4CCCN4O3)cc2c(=O)n1Cc1ccc(-c2ccccc2-c2nnn[nH]2)cc1 | 
21 | 39 nM | CCCCc1nc2ccc([C@@H]3C[C@H]4CCC(C)(C)N4O3)cc2c(=O)n1Cc1ccc(-c2ccccc2-c2nnn[nH]2)cc1 | 
22 | 35 nM | CCCCc1nc2ccc([C@]3(CO)C[C@H]4CCCN4O3)cc2c(=O)n1Cc1ccc(-c2ccccc2-c2nnn[nH]2)cc1 | 
23 | 27 nM | CCCCc1nc2ccc([C@]3(C)C[C@H]4CCCN4O3)cc2c(=O)n1Cc1ccc(-c2ccccc2-c2nn[nH]n2)cc1 | Activity (Rattus norvegicus [2]): -5.5 mmHg; Activity (Rattus norvegicus [3]): -3 mmHg
24 | 83 nM | CCCCc1nc2ccc([C@]3(CC)C[C@H]4CCCN4O3)cc2c(=O)n1Cc1ccc(-c2ccccc2-c2nnn[nH]2)cc1 | 
25 | 32 nM | CCCCc1nc2ccc([C@@H]3C[C@H]4CCCN4O3)cc2c(=O)n1Cc1ccc(-c2ccccc2-c2nnn[nH]2)cc1 | 
26 | 31 nM | CCCCc1nc2ccc(C(C)(C)OC)cc2c(=O)n1Cc1ccc(-c2ccccc2-c2nn[nH]n2)cc1 [CL-329167] | 
27 | 330 nM | CCCCc1nc(Cl)c(CO)n1Cc1ccc(-c2ccccc2-c2nnn[nH]2)cc1 [LOSARTAN] | inhibition in vivo at 5 mg/kg (Rattus norvegicus [4]): 50%
